Entries after “also recorded” stand apart in the source; their conditions may differ.
What was measured:
HT29 = assay: quantitative MSP and real-time RT-PCR with and without 5-aza-dC treatment; type: cell-based, human; details: HT29, after 5-aza-dC treatment
Description: (§1) Next, a cDNA microarray analysis of two colon cancer cell lines was performed, comparing cells treated with 5-aza-dC and untreated cells. Briefly, the colon cancer cell lines HT29 and HCT116 were seeded at a density of 4×10^5 cells per 75 cm^2 culture flask and incubated for 24 hours in growth media. The cells were then treated with 5-aza-dC in either one of the following conditions: a) 10 μM 5-aza-dC for 84 hours or b) 1 μM 5-aza-dC for 24 hours followed by 60 hours of 5-aza-dC-free growth. These two 5-aza-dC treatment regimens were employed to obtain expression data under diverse cellular conditions: the former regimen focused on maximum DNA demethylation, while the latter regimen focused on moderate DNA demethylation to minimize damage to cell viability. […] Genes with very low expression levels in post-treatment specimens were eliminated from further analyses. The cut-off criterion was defined as median signal intensity less than median background intensity plus 1 standard deviation.
(§2) Tumor samples were snap frozen on dry ice and stored at −80° C. After thawing, DNA was extracted from samples and treated with bisulfite prior to MSP. Briefly, DNA was extracted from all samples and treated with bisulfite to convert unmethylated cytosines to uracils prior to methylation-specific PCR (MSP) as described previously in Mori, Y., et al. Cancer Res. 64:2434-38 (2004), which is incorporated by reference. DNA methylation status and levels of the 4 candidate markers were determined with real-time quantitative MSP using the ABI 7900 HT Sequence Detection (Taqman) System, as described previously in Sato F., et al., Cancer Res. 62:6820-22 (2002), which is incorporated by reference. Primers and probes for quantitative MSP of (SHP-1, DcR1, RARβ, and DcR2) are disclosed in Takahashi, T. et al, Int'l J. Cancer, 118(4): 924-931 (2005), which is incorporated by reference.
(§3) DNA methylation status and levels of 5 genes were determined with real-time quantitative MSP using the ABI 7900 HT Sequence Detection (Taqman) System, as described previously in Sato F., et al., Cancer Res. 62:6820-22 (2002), which is incorporated by reference. Primers and probes for quantitative MSP of ENG, MAL, CAV1, TAC1, SST, NELL1 and AKAP12 are below in Tables III and IV.
(§4) A normalized methylation value (NMV) reflecting the percentage of DNA methylated for the gene of interest (GoI), was defined as follows: NMV=(GoI-S/GoI-FM)/(ACTB-S/ACTB-FM)*100, where GoI-S and GoI-FM represented GoI methylation levels in the Sample and Fully Methylated DNAs, respectively, while ACTB-S and ACTB-FM corresponds to β-Actin in the sample and Fully Methylated (FM) DNAs, respectively.
(§5) Increased SST and TAC1 methylation levels was also observed in cancers relative to matched normal colonic mucosae from the resection margins (FIG. 2). […] Furthermore, we examined the correlation between promoter methylation and mRNA expression levels of SST and TAC1. For this purpose, we analyzed colon cancer cell lines with and without 5-aza-dC treatment using quantitative real-time PCR. mRNA upregulation occurred for both SST and TAC1 after promoter DNA demethylation by 5-aza-dC treatment (FIG. 4).

HCT116 = assay: as above; type: cell-based, human; details: HCT116, after 5-aza-dC treatment
Description: as §1, §2, §3, §4, §5

OE33 = assay: 5-Aza-dC treatment of esophageal cancer cell line, qMSP and qRT-PCR; type: cell-based
Description: (§6) Samples and cell lines were treated as in Example 1. Briefly, extracted DNA was treated with bisulfite to convert unmethylated cytosines to uracils prior to MSP. Promoter methylation levels of TAC1 were determined using qMSP with the ABI 7700 Sequence Detection (Taqman) System, using primers and probes described. A normalized methylation value (NMV), reflecting the percentage of DNA methylated for the gene of interest (GoI), was defined as follows: NMV=(GoI-S/GoI-FM)/(ACTB-S/ACTB-FM), where GoI-S and GoI-FM represent GoI methylation levels in the sample and fully methylated DNAs, respectively, while ACTB-S and ACTB-FM correspond to β-Actin in the sample and fully methylated DNAs, respectively.
(§7) To determine SST mRNA levels, one-step real-time quantitative RT-PCR was performed using a Qiagen QuantiTect Probe RT-PCR Kit (Qiagen, Hilden, Germany) and the ABI 7700 Sequence Detection (Taqman) System. Primers and probes were the same as previously reported. 12 β-Actin was used for normalization of data. A standard curve was generated using serial dilutions of qPCR Reference Total RNA (Clontech, Mountainview, Calif.). The normalized mRNA value (NRV) was calculated according to the following formula for relative expression of target mRNA: NRV=(TarS/TarC)/(ACTB-S/ACTB-C), where TarS and TarC represent levels of mRNA expression for the target gene in sample and control mRNAs, respectively, whereas ACTB-S and ACTB-C correspond to amplified ACTB levels in sample and control mRNAs, respectively.
(§8) To determine whether SST inactivation was due to promoter hypermethylation in esophageal cancer, 2 esophageal cancer cell lines (KYSE220 and OE33) were subjected to 5-Aza-dC (Sigma, St. Louis, Mo.) treatment. Briefly, 1×10^5 cells/ml were seeded onto a 100 mm dish and grown for 24 h. Then, 1 μl of 5 mM 5-Aza-dC per ml of cells was added every 24 hours for 6 days. DNA and RNA were harvested on day 6.
(§9) Samples were treated as in Examples 1 and 2. Briefly, to determine AKAP12 mRNA levels, one-step real-time quantitative RT-PCR was performed using a Qiagen QuantiTect Probe RT-PCR Kit (Qiagen, Hilden, Germany) and the ABI 7700 Sequence Detection System (Applied Biosystems, Foster City, Calif.). Primers and probe for AKAP12 were as follows: […]
(§10) β-actin was used for normalization of data. Primers and probe for β-actin were the same as previously reported. […] Normalized mRNA value (NRV) was calculated according to the following formula for relative expression of target mRNA: NRV=(TarS/TarC)/(ACTB-S/A CTB-C, where TarS and TarC represent levels of mRNA expression for the target gene in sample and control mRNAs, respectively, while ACTB-S and ACTB-C correspond to amplified ACTB levels in sample and control mRNAs, respectively.

KYSE220 = assay: as above; type: cell-based; details: 1 μl of 5 mM 5-Aza-dC per ml of cells every 24 hours for 6 days
Description: as §6
(§11) To determine TAC1 mRNA levels, one-step real-time quantitative RT-PCR was performed using a Qiagen QuantiTect Probe RT-PCR Kit (Qiagen, Hilden, Germany) and the ABI 7700 Sequence Detection (Taqman) System. Primers and probes are described herein. β-Actin was used to normalize data. A standard curve was generated using serial dilutions of qPCR Reference Total RNA (Clontech, Mountainview, Calif.). The normalized mRNA value (NRV) was calculated according to the following formula for relative expression of target mRNA: Expression index=(TarS/TarC)/(ACTB-S/ACTB-C, where TarS and TarC represent levels of mRNA expression for the target gene in the sample and control mRNAs, respectively, whereas ACTB-S and ACTB-C correspond to amplified ACTB levels in the sample and control mRNAs, respectively.
as §7
as §8, with “TAC1” for “SST”, “BIC)” for “OE33)”, “DNAs” for “DNA”, “RNAs” for “RNA”, “6. […]” for “6.”

HT29 and HCT116 = assay: cDNA microarray of colon cancer cell lines treated with 5-aza-dC versus untreated cells; type: cell-based, human; details: in at least one of HT29, HCT116; 10 μM 84 hours or 1 μM 24 hours then 60 hours drug-free; log ratio greater than 0.75 (1.65-fold)
Description: as §1

HCT116 and HT29 = assay: quantitative MSP and real-time RT-PCR with and without 5-aza-dC treatment, five further genes; type: cell-based, human; details: all five genes, in a colon cancer cell line, after 5-aza-dC treatment
Description: Next, a cDNA microarray analysis of two colon cancer cell lines was performed, comparing cells treated with 5-aza-dC and untreated cells. Briefly, the colon cancer cell lines HT29 and HCT116 were seeded at a density of 4×10^5 cells per 75 cm^2 culture flask and incubated for 24 hours in growth media. The cells were then treated with 5-aza-dC in either one of the following conditions: a) 10 μM 5-aza-dC for 84 hours or b) 1 μM 5-aza-dC for 24 hours followed by 60 hours of 5-aza-dC-free growth. […]
Tumor samples were snap frozen on dry ice and stored at −80° C. […] DNA methylation status and levels of the 4 candidate markers were determined with real-time quantitative MSP using the ABI 7900 HT Sequence Detection (Taqman) System, as described previously in Sato F., et al., Cancer Res. 62:6820-22 (2002), which is incorporated by reference. Primers and probes for quantitative MSP of (SHP-1, DcR1, RARβ, and DcR2) are disclosed in Takahashi, T. et al, Int'l J. Cancer, 118(4): 924-931 (2005), which is incorporated by reference.
as §3, with “IV. […]” for “IV.”

BIC = assay: 5-Aza-dC treatment of esophageal cancer cell line, qMSP and qRT-PCR; type: cell-based
Description: as §6, §11
as §8, with “TAC1” for “SST”, “BIC)” for “OE33)”, “DNAs” for “DNA”, “RNAs” for “RNA”
as §9, §10

[1] = OE33, 1 μl of 5 mM 5-Aza-dC per ml of cells every 24 hours for 6 days
[2] = 1 μl of 5 mM 5-Aza-dC per ml of cells every 24 hours for 6 days

Compound: Nc1ncn([C@H]2C[C@H](O)[C@@H](CO)O2)c(=O)n1 [5-aza-dC]
- SST mRNA expression index (EI) (HT29): upregulation
- SST promoter methylation index (MI) (HT29): demethylation; also recorded: decreased
- TAC1 mRNA expression index (EI) (HT29): upregulation
- TAC1 promoter methylation index (MI) (HT29): demethylation; also recorded: decreased
- SST mRNA expression index (EI) (HCT116): upregulation
- SST promoter methylation index (MI) (HCT116): demethylation; also recorded: decreased
- TAC1 mRNA expression index (EI) (HCT116): upregulation
- TAC1 promoter methylation index (MI) (HCT116): demethylation; also recorded: decreased
- NMV of AKAP12 (OE33; OE33, after 5-Aza-dC treatment): diminished
- mRNA level (NRV) of AKAP12 (OE33; OE33, after 5-Aza-dC treatment): increased
- NMV of SST (OE33; [1]): diminished
- mRNA level (NRV) of SST (OE33; [1]): increased
- NMV of SST (KYSE220): diminished
- NMV of TAC1 (KYSE220): diminished
- mRNA level (NRV) of SST (KYSE220): increased
- mRNA level (NRV) of TAC1 (KYSE220): increased
- genes upregulated after 5-aza-dC treatment (HT29 and HCT116): 861 genes
- mRNA of NELL1, CAV1, AKAP12, ENG and MAL (HCT116 and HT29): increased; also recorded: upregulation
- promoter region DNA methylation of NELL1, CAV1, AKAP12, ENG and MAL (HCT116 and HT29): demethylation; also recorded: decreased
- NMV of TAC1 (BIC; [2]): diminished
- mRNA level (NRV) of TAC1 (BIC; [2]): increased
- NMV of AKAP12 (BIC; after 5-Aza-dC treatment): diminished
- mRNA level (NRV) of AKAP12 (BIC; after 5-Aza-dC treatment): increased

From patent publication US20080081333A1, “METHYLATED PROMOTERS AS BIOMARKERS OF COLON CANCER” (UNIVERSITY OF MARYLAND, BALTIMORE, priority 2006, published 2008)
